Assay results as given in patent US10155021B2, “Antimicrobial 4-oxoquinolizines” (Emergent Product Development Gaithersburg Inc., priority 2011, dated 2018).
≈ marks a conversion by molar mass, not a printed value. Like-named read-outs stand apart in the source and are kept apart here.

Key:
A. baumannii A390 [1] = test: Preliminary MBC without and with sub-inhibitory polymyxin B (Example 4); assay type: cell-based, Acinetobacter baumannii; conditions: Acinetobacter baumannii, A390, read-out: MBC without PB
A. baumannii A401 [2] = test: MIC without and with sub-inhibitory polymyxin B (Example 4); assay type: cell-based, Acinetobacter baumannii; conditions: Acinetobacter baumannii, A401, A baumannii A 401; without polymyxin B; 2nd experiment; visual reading; read-out: MIC without PB
[3] = test system: Acinetobacter spp. H064200250; test: MIC determination for Acinetobacter strains (Example 3); assay type: cell-based, Acinetobacter sp.; conditions: LEV R, CIP R, MRP R, IMP I
[4] = test system: Acinetobacter sp. (H064200250); test: Preliminary MBC without and with sub-inhibitory polymyxin B (Example 4); assay type: cell-based; conditions: Acinetobacter, read-out: MBC without PB
Protocol: The plates were incubated for 18-20 hours at 37° C. The MBC was read as the lowest concentration at which colony growth was ca. 90% less than the positive control (i.e. usually where single colonies or no colonies were observed).

[5] = test system: 11 strains of A. baumannii and one strain of Acinetobacter sp.; test: Preliminary MBC without and with sub-inhibitory polymyxin B, whole panel (Example 4; also strains not listed separately); assay type: cell-based; conditions: Acinetobacter baumannii
A. baumannii ATCC 19606 [6] = test: Preliminary MBC without and with sub-inhibitory polymyxin B (Example 4); assay type: cell-based, Acinetobacter baumannii; conditions: Acinetobacter baumannii, ATCC19606, read-out: MBC without PB, A. baumannii ATCC 19606, without polymyxin B, preliminary MBC
A. baumannii A473 [7] = test: MIC without and with sub-inhibitory polymyxin B (Example 4); assay type: cell-based, Acinetobacter baumannii; conditions: Acinetobacter baumannii, A473, A. baumannii A473; without polymyxin B; 1st experiment; read-out: MIC without PB
A. baumannii A489 [8] = test: MIC determination for Acinetobacter strains (Example 3); assay type: cell-based; conditions: LEV R, CIP R, MRP R, IMP R, AMK R, TET R
A. baumannii A472 [9] = test: Preliminary MBC without and with sub-inhibitory polymyxin B (Example 4); assay type: cell-based, Acinetobacter baumannii; conditions: Acinetobacter baumannii, A472, read-out: MBC without PB, A. baumannii A472, without polymyxin B, 2nd experiment
A. baumannii A329 = test: as above; assay type: cell-based, Acinetobacter baumannii; conditions: Acinetobacter baumannii
A. baumannii J2 = test: as above; assay type: cell-based, Acinetobacter baumannii; conditions: Acinetobacter baumannii, J2, read-out: MBC without PB
A. baumannii A473 [10] = test: MIC determination for Acinetobacter strains (Example 3); assay type: cell-based; conditions: LEV R, CIP R, MRP R, IMP R, AMK R, TET R
A. baumannii A489 [11] = test: MIC without and with sub-inhibitory polymyxin B (Example 4); assay type: cell-based, Acinetobacter baumannii; conditions: Acinetobacter baumannii, A489, A. baumannii A489, without polymyxin B, read-out: MIC without PB
A. baumannii A472 [12] = test: MIC determination for Acinetobacter strains (Example 3); assay type: cell-based; conditions: LEV R, CIP R, MRP I, IMP I, AMK R, TET R
A. baumannii ATCC 19606 [13] = test: MIC without and with sub-inhibitory polymyxin B (Example 4); assay type: cell-based, Acinetobacter baumannii; conditions: Acinetobacter baumannii, ATCC19606, A. baumannii ATCC 19606, without polymyxin B, read-out: MIC without PB
A. baumannii A489 [14] = test: Preliminary MBC without and with sub-inhibitory polymyxin B (Example 4); assay type: cell-based, Acinetobacter baumannii; conditions: Acinetobacter baumannii, A489, read-out: MBC without PB, A. baumannii A489, without polymyxin B, 2nd experiment
A. baumannii A472 [15] = test: MIC without and with sub-inhibitory polymyxin B (Example 4); assay type: cell-based, Acinetobacter baumannii; conditions: Acinetobacter baumannii, A472, A. baumannii A472, without polymyxin B, read-out: MIC without PB
A. baumannii A390 [16] = test: MIC determination for Acinetobacter strains (Example 3); assay type: cell-based; conditions: LEV R, CIP R, MRP R, IPM I, AMK R, TET I
[17] = test system: resistant strains of A. baumannii and one strain of Acinetobacter sp.; test: MIC without and with sub-inhibitory polymyxin B, whole panel / MIC ranges (Example 4; also strains not listed separately); assay type: cell-based; conditions: for MIC: Acinetobacter baumannii, without polymyxin B, 2nd experiment
A. baumannii A401 [18] = test: Preliminary MBC without and with sub-inhibitory polymyxin B (Example 4); assay type: cell-based, Acinetobacter baumannii; conditions: Acinetobacter baumannii, A401, read-out: MBC without PB
A. baumannii A390 [19] = test: MIC without and with sub-inhibitory polymyxin B (Example 4); assay type: cell-based, Acinetobacter baumannii; conditions: Acinetobacter baumannii, A390, A. baumannii A390, without polymyxin B, read-out: MIC without PB
[20] = test system: Acinetobacter sp. (H064200250); test: as above; assay type: cell-based; conditions: Acinetobacter, without polymyxin B, read-out: MIC without PB
A. baumannii ATCC 19606 [21] = test: MIC determination for Acinetobacter strains (Example 3); assay type: cell-based; conditions: ATCC19606, reference strain

## COc1c(N2C[C@@H]3CCCN[C@@H]3C2)c(F)cc2c(=O)c(C(=O)O)cn(C3CC3)c12 [Moxifloxacin, reference compound]
A. baumannii A390 [1]
  MBC: 16 mg/L (≈ 39.9 µM)
A. baumannii A401 [2]
  MIC: 16 mg/L (≈ 39.9 µM)
[3]
  MIC: 16 mg/L (≈ 39.9 µM)
[4]
  MBC: 16 mg/L (≈ 39.9 µM)
[5]; NCTC13301, read-out: MBC without PB, A. baumannii NCTC 13301, without polymyxin B, 1st experiment
  MBC: 32 mg/L (≈ 79.7 µM)
[5]; NCTC13301, read-out: MBC without PB, A. baumannii NCTC 13301, without polymyxin B, 2nd experiment
  MBC: 64 mg/L (≈ 159 µM)
[5]; read-out: MBC without PB, A. baumannii A14, without polymyxin B, 1st experiment
  MBC: 32 mg/L (≈ 79.7 µM)
[5]; read-out: MBC without PB, A. baumannii A14, without polymyxin B, 2nd experiment
  MBC: 32 mg/L (≈ 79.7 µM)
A. baumannii ATCC 19606 [6]; 2nd experiment
  MBC: 1 mg/L (≈ 2.49 µM)
A. baumannii ATCC 19606 [6]; 1st experiment
  MBC: 0.5 mg/L (≈ 1.25 µM)
A. baumannii A473 [7]
  MIC: 16 mg/L (≈ 39.9 µM)
A. baumannii A489 [8]
  MIC: 16 mg/L (≈ 39.9 µM)
A. baumannii A472 [9]
  MBC: 16 mg/L (≈ 39.9 µM)
A. baumannii A329; A329, read-out: MBC without PB, A. baumannii A329, without polymyxin B, 1st experiment
  MBC: 64 mg/L (≈ 159 µM)
A. baumannii A329; A329, read-out: MBC without PB, A. baumannii A329, without polymyxin B, 2nd experiment
  MBC: 32 mg/L (≈ 79.7 µM)
A. baumannii J2
  MBC: 32 mg/L (≈ 79.7 µM)
A. baumannii A473 [10]
  MIC: 16 mg/L (≈ 39.9 µM)
A. baumannii A489 [11]; 1st experiment
  MIC: 16 mg/L (≈ 39.9 µM)
A. baumannii A489 [11]; 2nd experiment, visual reading
  MIC: 16 mg/L (≈ 39.9 µM)
A. baumannii A472 [12]
  MIC: 16 mg/L (≈ 39.9 µM)
A. baumannii ATCC 19606 [13]; 1st experiment
  MIC: 0.5 mg/L (≈ 1.25 µM)
A. baumannii ATCC 19606 [13]; 2nd experiment, visual reading
  MIC: 1 mg/L (≈ 2.49 µM)
A. baumannii A489 [14]
  MBC: 16 mg/L (≈ 39.9 µM)
A. baumannii A472 [15]; 1st experiment
  MIC: 16 mg/L (≈ 39.9 µM)
A. baumannii A472 [15]; 2nd experiment, visual reading
  MIC: 16 mg/L (≈ 39.9 µM)
A. baumannii A390 [16]
  MIC: 16 mg/L (≈ 39.9 µM)
[17]
  fold greater activity (fold lower MIC) in presence of polymyxin B compared to without polymyxin B: not significantly affected
[17]; NCTC13301, A. baumannii NCTC 13301, visual reading, read-out: MIC without PB
  MIC: 64 mg/L (≈ 159 µM)
[17]; 11 strains, read-out: MIC range without PB 14-10-2008 n = 11
  MIC: 8 to 64 mg/L (≈ 19.9 to 159 µM)
A. baumannii A401 [18]
  MBC: 16 mg/L (≈ 39.9 µM)
A. baumannii A390 [19]; 1st experiment
  MIC: 16 mg/L (≈ 39.9 µM)
A. baumannii A390 [19]; 2nd experiment, visual reading
  MIC: 16 mg/L (≈ 39.9 µM)
[20]; Acinetobacter spp. H064200250 (OXA51), 2nd experiment, visual reading
  MIC: 16 mg/L (≈ 39.9 µM)
[20]; Acinetobacter spp. H064200250, 1st experiment
  MIC: 16 mg/L (≈ 39.9 µM)
A. baumannii ATCC 19606 [21]
  MIC: 0.5 mg/L (≈ 1.25 µM)
